Values of other authors, collected in patent US6887863B2, “Hydrazide and alkoxyamide angiogenesis inhibitors” (Abbott Laboratories, priority 2000, dated 2005).

Molecular target: type 2-methionine aminopeptidase (MetAP2) (Homo sapiens, UniProt P50579)
Conditions: reported in Proc. Natl. Acad. Sci. USA 94: 6099-6103 (1997) and Chemistry and Biology 4(6): 461-471 (1997)

Sequence of type 2-methionine aminopeptidase (MetAP2) (P50579 whole entry, species assumed): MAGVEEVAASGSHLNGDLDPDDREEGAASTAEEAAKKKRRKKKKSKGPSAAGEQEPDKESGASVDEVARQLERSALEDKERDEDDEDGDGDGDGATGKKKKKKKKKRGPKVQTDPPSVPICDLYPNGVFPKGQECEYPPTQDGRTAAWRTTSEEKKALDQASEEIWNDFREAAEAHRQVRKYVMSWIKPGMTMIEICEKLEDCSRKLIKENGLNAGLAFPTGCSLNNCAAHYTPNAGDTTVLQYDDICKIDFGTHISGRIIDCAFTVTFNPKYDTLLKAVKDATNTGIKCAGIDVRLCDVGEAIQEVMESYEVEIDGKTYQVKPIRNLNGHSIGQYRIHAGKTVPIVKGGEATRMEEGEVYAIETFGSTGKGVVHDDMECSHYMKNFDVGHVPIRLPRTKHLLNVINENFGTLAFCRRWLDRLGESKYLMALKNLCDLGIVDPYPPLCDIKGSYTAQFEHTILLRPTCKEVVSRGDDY

SMILES: CO[C@@H]1[C@H](OC(=O)NC(=O)CCl)CC[C@]2(CO2)[C@H]1[C@@]1(C)O[C@@H]1CC=C(C)C [AGM-1470]
- inactivation of MetAP2: covalently inactivate
